Literature values as cited in PMC3433420 (PLoS ONE, 2012).
Where two headings read alike, the source gives them in different places.

Target: SH2 and PTB domains
Settings: ref Jones et al. 2006 / Kaushansky et al. Chem and Biol 2008, cited from earlier work
Excerpt: Supplement pone.0044471.s022.xlsx, sheet "Most recent PM interactions" | column: Kd || Supplement pone.0044471.s022.xlsx, sheet "All original PM interactions" | column: Kd

Q: Which Kd (Protein ABL1, original PM interactions) does the source give for “PGGDpYAAMGACPd [ErbB3 pY1276, N-terminally rhodamine-labeled 13-mer phosphopeptide]” here?
A: 2000 nM

Q: What about the Kd (Protein BCAR3, original PM interactions) of the same substance?
A: 2000 nM

Q: And the Kd (Protein CRKL, original PM interactions)?
A: 440 nM

Q: What about the Kd (Protein PIK3R3-C, original PM interactions) of the same substance?
A: 500 nM

Q: What about the Kd (Protein PIK3R3-N, original PM interactions) of the same substance?
A: 500 nM

Q: What about the Kd (Protein PTK6, original PM interactions) of the same substance?
A: 440 nM

Q: What about the Kd (Protein SH2B2, original PM interactions) of the same substance?
A: 2000 nM

Q: And the Kd (Protein SHC1, original PM interactions)?
A: 600 nM

Q: What about the Kd (Protein SLA2, original PM interactions) of the same substance?
A: 2000 nM

Q: And the Kd (Protein SLA, original PM interactions)?
A: 2000 nM

Q: What about the Kd (Protein SYK-NC, original PM interactions) of the same substance?
A: 600 nM

Q: What about the Kd (Protein TENC1, original PM interactions) of the same substance?
A: 2000 nM

Q: What about the Kd (Protein VAV1, original PM interactions) of the same substance?
A: 2000 nM

Q: And the Kd (protein ABL2)?
A: 150 nM

Q: What about the Kd (protein CRK) of the same substance?
A: 260 nM

Q: What about the Kd (protein CRKL) of the same substance?
A: 440 nM

Q: And the Kd (protein HCK)?
A: 580 nM

Q: What about the Kd (protein NCK1) of the same substance?
A: 210 nM

Q: What about the Kd (protein NCK2) of the same substance?
A: 550 nM

Q: What about the Kd (protein PIK3R1-N) of the same substance?
A: 530 nM

Q: What about the Kd (protein PIK3R1-NC) of the same substance?
A: 55 nM

Q: And the Kd (protein PIK3R2-C)?
A: 930 nM

Q: What about the Kd (protein PIK3R2-N) of the same substance?
A: 120 nM

Q: What about the Kd (protein PIK3R2-NC) of the same substance?
A: 80 nM

Q: And the Kd (protein PIK3R3-C)?
A: 500 nM

Q: And the Kd (protein PIK3R3-N)?
A: 500 nM

Q: And the Kd (protein PIK3R3-NC)?
A: 14 nM

Q: What about the Kd (protein PLCG1-C) of the same substance?
A: 690 nM

Q: And the Kd (protein PLCG1-NC)?
A: 720 nM

Q: What about the Kd (protein PTK6) of the same substance?
A: 440 nM

Q: And the Kd (protein RASA1-N)?
A: 910 nM

Q: And the Kd (protein SHC1)?
A: 600 nM

Q: And the Kd (protein SHC3)?
A: 640 nM

Q: What about the Kd (protein SYK-NC) of the same substance?
A: 600 nM

Q: And the Kd (protein TXK)?
A: 1670 nM

Q: And the Kd (protein VAV2)?
A: 300 nM

Q: What about the Kd (protein VAV3) of the same substance?
A: 1540 nM

Q: And the Kd (protein ZAP70-C)?
A: 1440 nM

Q: Which Kd (protein ABL2, all original PM interactions) does the source give for “PKQEpYLNPVEENd [ErbB4 pY1162, N-terminally rhodamine-labeled 13-mer phosphopeptide]” here?
A: 320 nM

Q: What about the Kd (protein ABL2) of the same substance?
A: 280 nM

Q: What about the Kd (protein CRK, all original PM interactions) of the same substance?
A: 2000 nM

Q: What about the Kd (protein CRKL, all original PM interactions) of the same substance?
A: 2000 nM

Q: And the Kd (protein NCK2, all original PM interactions)?
A: 2000 nM

Q: And the Kd (protein PIK3R2-N, all original PM interactions)?
A: 2000 nM

Q: And the Kd (protein PIK3R3-NC, all original PM interactions)?
A: 2000 nM

Q: And the Kd (protein PLCG1-C, all original PM interactions)?
A: 2000 nM

Q: And the Kd (protein PLCG1-NC, all original PM interactions)?
A: 2000 nM

Q: And the Kd (protein PTPN11-N, all original PM interactions)?
A: 2000 nM

Q: And the Kd (protein RASA1-N, all original PM interactions)?
A: 2000 nM

Q: What about the Kd (protein RASA1-N) of the same substance?
A: 980 nM

Q: What about the Kd (protein SLA, all original PM interactions) of the same substance?
A: 2000 nM

Q: And the Kd (protein SYK-NC, all original PM interactions)?
A: 2000 nM

Q: What about the Kd (protein VAV1, all original PM interactions) of the same substance?
A: 2000 nM

Q: And the Kd (protein VAV2, all original PM interactions)?
A: 2000 nM

Q: What about the Kd (protein VAV2) of the same substance?
A: 100 nM

Q: What about the Kd (protein VAV3, all original PM interactions) of the same substance?
A: 2000 nM

Q: With PLTCSPQPEpYVNQPDVR [ErbB2 1139] as the substance, how does the Kd (Protein ABL1, most recent PM interactions) read?
A: 160 nM

Q: And the Kd (Protein ABL2, most recent PM interactions)?
A: 70 nM

Q: What about the Kd (Protein BCAR3, most recent PM interactions) of the same substance?
A: 1000 nM

Q: And the Kd (Protein BMX, most recent PM interactions)?
A: 520 nM

Q: What about the Kd (Protein FGR, most recent PM interactions) of the same substance?
A: 450 nM

Q: And the Kd (Protein GRAP2, most recent PM interactions)?
A: 960 nM

Q: And the Kd (Protein GRB2, most recent PM interactions)?
A: 76 nM

Q: What about the Kd (Protein ITK, most recent PM interactions) of the same substance?
A: 1510 nM

Q: And the Kd (Protein NCK2, most recent PM interactions)?
A: 780 nM

Q: What about the Kd (Protein PIK3R1-N, most recent PM interactions) of the same substance?
A: 510 nM

Q: And the Kd (Protein PIK3R1-NC, most recent PM interactions)?
A: 740 nM

Q: And the Kd (Protein PIK3R2-N, most recent PM interactions)?
A: 280 nM

Q: What about the Kd (Protein PIK3R2-NC, most recent PM interactions) of the same substance?
A: 780 nM

Q: What about the Kd (Protein PIK3R3-C, most recent PM interactions) of the same substance?
A: 1220 nM

Q: And the Kd (Protein PIK3R3-N, most recent PM interactions)?
A: 400 nM

Q: And the Kd (Protein PIK3R3-NC, most recent PM interactions)?
A: 300 nM

Q: What about the Kd (Protein PLCG1-C, most recent PM interactions) of the same substance?
A: 1930 nM

Q: And the Kd (Protein PLCG2-NC, most recent PM interactions)?
A: 1280 nM

Q: What about the Kd (Protein PTPN11-NC, most recent PM interactions) of the same substance?
A: 880 nM

Q: What about the Kd (Protein RASA1-N, most recent PM interactions) of the same substance?
A: 680 nM

Q: And the Kd (Protein SH2D2A, most recent PM interactions)?
A: 980 nM

Q: What about the Kd (Protein SH3BP2, most recent PM interactions) of the same substance?
A: 410 nM

Q: What about the Kd (Protein SYK-NC, most recent PM interactions) of the same substance?
A: 970 nM

Q: What about the Kd (Protein TENC1, most recent PM interactions) of the same substance?
A: 570 nM

Q: And the Kd (Protein TNS3, most recent PM interactions)?
A: 770 nM

Q: What about the Kd (Protein VAV1, most recent PM interactions) of the same substance?
A: 210 nM

Q: And the Kd (Protein VAV2, most recent PM interactions)?
A: 230 nM
